Results from patent US20170050957A1, “4-AMINO-6-(HETEROCYCLIC)PICOLINATES AND 6-AMINO-2-(HETEROCYCLIC)PYRIMIDINE-4-CARBOXYLATES AND THEIR USE AS HERBICIDES” (Dow AgroSciences LLC, priority 2013, published 2017).
Where two headings read alike, the source gives them in different places.

Key:
[1] = test system: Key Grass and Sedge Weeds as well as Grass Crops; experiment: Post-emergent Test II herbicidal activity (Table 16); format: in vivo; details: post-emergence, 336 h, 14 days after application; for pest or weed control at 35 g/ha: 35 g ai/ha; for pest or weed control at 70 g/ha: 70 g ai/ha; for pest or weed control at 140 g/ha: 140 g ai/ha
In short: (§1)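 Plants grown in greenhouse (~15 h photoperiod, 23-29 °C day, 22-28 °C night) to first or second true leaf stage, then sprayed post-emergence at 187 L/ha with a high rate and 1/2×, 1/4×, 1/8× and 1/16× dilutions. Injury scored visually after 14 d, 0-100% versus untreated plants.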

[2] = test system: Key Broadleaf Weed and Crop Species; experiment: Post-emergent Test II herbicidal activity (Table 15); format: in vivo; details: post-emergence, 336 h, 14 d; for pest or weed control at 35 g/ha: 35 g ai/ha; for pest or weed control at 70 g/ha: 70 g ai/ha; for pest or weed control at 140 g/ha: 140 g ai/ha
In short: as §1

[3] = Cyperus esculentus, yellow nutsedge (Cyperus esculentus), read-out: Visual Growth Reduction (%) 14 Days After Application CYPES
[4] = Echinochloa crus-galli, barnyardgrass (Echinochloa crus-galli), read-out: Visual Growth Reduction (%) 14 Days After Application ECHCG
[5] = Oryza sativa, rice (Oryza sativa), read-out: Visual Growth Reduction (%) 14 Days After Application ORYSA
[6] = Triticum aestivum, wheat, spring (Triticum aestivum), read-out: Visual Growth Reduction (%) 14 Days After Application TRZAS
[7] = Zea mays, maize, corn (Zea mays), read-out: Visual Growth Reduction (%) 14 Days After Application ZEAMX
[8] = Abutilon theophrasti, velvetleaf (Abutilon theophrasti), read-out: Visual Growth Reduction (%) 14 Days After Application, ABUTH
[9] = Amaranthus retroflexus, redroot pigweed (Amaranthus retroflexus), read-out: Visual Growth Reduction (%) 14 Days After Application, AMARE
[10] = Brassica napus, oilseed rape, canola (Brassica napus), read-out: Visual Growth Reduction (%) 14 Days After Application, BRSNN
[11] = Chenopodium album, lambsquarters (Chenopodium album), read-out: Visual Growth Reduction (%) 14 Days After Application, CHEAL
[12] = Euphorbia heterophylla, wild poinsettia (Euphorbia heterophylla), read-out: Visual Growth Reduction (%) 14 Days After Application, EPHHL
[13] = Helianthus annuus, sunflower (Helianthus annuus), read-out: Visual Growth Reduction (%) 14 Days After Application, HELAN
[14] = Setaria faberi, giant foxtail (Setaria faberi), read-out: Visual Growth Reduction (%) 14 Days After Application SETFA

melting point [°C] | SMILES | pest or weed control at 35 g/ha [1, 3] [%] | pest or weed control at 70 g/ha [1, 3] [%] | pest or weed control at 140 g/ha [1, 3] [%] | pest or weed control at 35 g/ha [1, 4] [%] | pest or weed control at 70 g/ha [1, 4] [%] | pest or weed control at 140 g/ha [1, 4] [%] | pest or weed control at 35 g/ha [1, 5] [%] | pest or weed control at 70 g/ha [1, 5] [%] | pest or weed control at 140 g/ha [1, 5] [%] | pest or weed control at 35 g/ha [1, 6] [%] | pest or weed control at 70 g/ha [1, 6] [%] | pest or weed control at 140 g/ha [1, 6] [%] | pest or weed control at 35 g/ha [1, 7] [%] | pest or weed control at 70 g/ha [1, 7] [%] | pest or weed control at 140 g/ha [1, 7] [%] | pest or weed control at 35 g/ha [2, 8] [%] | pest or weed control at 70 g/ha [2, 8] [%] | pest or weed control at 140 g/ha [2, 8] [%] | pest or weed control at 35 g/ha [2, 9] [%] | other results
156 to 159 | COC(=O)c1nc(-c2ccc3c(cnn3C)c2)c(F)c(N)c1Cl [Compound 4.03] | 0 to 29 | 0 to 29 | 0 to 29 | 60 to 74 | 75 to 84 | 75 to 84 | 0 to 29 | 0 to 29 | 0 to 29 | 0 to 29 | 0 to 29 | 0 to 29 | 0 to 29 | 0 to 29 | 0 to 29 | 0 to 29 | 0 to 29 | 0 to 29 | 0 to 29 | pest or weed control at 70 g/ha [2, 9]: 45 to 59%; pest or weed control at 140 g/ha [2, 9]: 75 to 84%; pest or weed control at 35 g/ha [2, 10]: 0 to 29%; pest or weed control at 70 g/ha [2, 10]: 0 to 29%; pest or weed control at 140 g/ha [2, 10]: 0 to 29%; pest or weed control at 35 g/ha [2, 11]: 95 to 100%; pest or weed control at 70 g/ha [2, 11]: 95 to 100%; pest or weed control at 140 g/ha [2, 11]: 95 to 100%; pest or weed control at 35 g/ha [2, 12]: 45 to 59%; pest or weed control at 70 g/ha [2, 12]: 60 to 74%; pest or weed control at 140 g/ha [2, 12]: 75 to 84%; pest or weed control at 35 g/ha [2, 13]: 0 to 29%; pest or weed control at 70 g/ha [2, 13]: 45 to 59%; pest or weed control at 140 g/ha [2, 13]: 60 to 74%
70 | COC(=O)c1nc(-c2cc3sccc3cc2F)cc(N)c1Cl [Compound 3.17] | 0 to 29 | 0 to 29 | 0 to 29 | 45 to 59 | 60 to 74 | 95 to 100 | 0 to 29 | 0 to 29 | 0 to 29 | 0 to 29 | 0 to 29 | 0 to 29 | 30 to 44 | 60 to 74 | 75 to 84 | 0 to 29 | 45 to 59 | 60 to 74 | 75 to 84 | pest or weed control at 35 g/ha [1, 14]: 0 to 29%; pest or weed control at 70 g/ha [1, 14]: 0 to 29%; pest or weed control at 140 g/ha [1, 14]: 30 to 44%; pest or weed control at 70 g/ha [2, 9]: 95 to 100%; pest or weed control at 140 g/ha [2, 9]: 95 to 100%; pest or weed control at 35 g/ha [2, 10]: 0 to 29%; pest or weed control at 70 g/ha [2, 10]: 0 to 29%; pest or weed control at 140 g/ha [2, 10]: 60 to 74%; pest or weed control at 35 g/ha [2, 11]: 85 to 94%; pest or weed control at 70 g/ha [2, 11]: 95 to 100%; pest or weed control at 140 g/ha [2, 11]: 95 to 100%; pest or weed control at 35 g/ha [2, 12]: 45 to 59%; pest or weed control at 70 g/ha [2, 12]: 60 to 74%; pest or weed control at 140 g/ha [2, 12]: 75 to 84%; pest or weed control at 35 g/ha [2, 13]: 0 to 29%; pest or weed control at 70 g/ha [2, 13]: 0 to 29%; pest or weed control at 140 g/ha [2, 13]: 30 to 44%
121 to 123 | COC(=O)c1nc(-c2cccc3ccsc23)c(F)c(N)c1Cl [Compound 3.24] | 0 to 29 | 0 to 29 | 0 to 29 | 0 to 29 | 0 to 29 | 0 to 29 | 0 to 29 | 0 to 29 | 0 to 29 | 0 to 29 | 0 to 29 | 0 to 29 | 0 to 29 | 0 to 29 | 0 to 29 | 0 to 29 | 0 to 29 | 0 to 29 | 85 to 94 | pest or weed control at 35 g/ha [1, 14]: 0 to 29%; pest or weed control at 70 g/ha [1, 14]: 0 to 29%; pest or weed control at 140 g/ha [1, 14]: 0 to 29%; pest or weed control at 70 g/ha [2, 9]: 85 to 94%; pest or weed control at 140 g/ha [2, 9]: 95 to 100%; pest or weed control at 35 g/ha [2, 10]: 45 to 59%; pest or weed control at 70 g/ha [2, 10]: 45 to 59%; pest or weed control at 140 g/ha [2, 10]: 45 to 59%; pest or weed control at 35 g/ha [2, 11]: 85 to 94%; pest or weed control at 70 g/ha [2, 11]: 95 to 100%; pest or weed control at 140 g/ha [2, 11]: 95 to 100%; pest or weed control at 35 g/ha [2, 12]: 0 to 29%; pest or weed control at 70 g/ha [2, 12]: 0 to 29%; pest or weed control at 140 g/ha [2, 12]: 0 to 29%; pest or weed control at 35 g/ha [2, 13]: 60 to 74%; pest or weed control at 70 g/ha [2, 13]: 60 to 74%; pest or weed control at 140 g/ha [2, 13]: 85 to 94%
